Assay results taken from ChEMBL document CHEMBL3526158, “Contributions of arylacetamide deacetylase and carboxylesterase 2 to flutamide hydrolysis in human liver” (Drug Metab Dispos, 2012).
pKi: −log10 of the molar value.

Key:
Cocaine esterase [1] = biological target: T1, Cocaine esterase (Homo sapiens, UniProt O00748); test: Drug metabolism assessed as loperamide-mediated inhibition of CES2-mediated compound hydrolysis in human jejunum microsomes at 5 uM relative to control; assay type: ADME; parameters: scale not given: the % may be the effect or the level left
T1 sequence (O00748 whole entry): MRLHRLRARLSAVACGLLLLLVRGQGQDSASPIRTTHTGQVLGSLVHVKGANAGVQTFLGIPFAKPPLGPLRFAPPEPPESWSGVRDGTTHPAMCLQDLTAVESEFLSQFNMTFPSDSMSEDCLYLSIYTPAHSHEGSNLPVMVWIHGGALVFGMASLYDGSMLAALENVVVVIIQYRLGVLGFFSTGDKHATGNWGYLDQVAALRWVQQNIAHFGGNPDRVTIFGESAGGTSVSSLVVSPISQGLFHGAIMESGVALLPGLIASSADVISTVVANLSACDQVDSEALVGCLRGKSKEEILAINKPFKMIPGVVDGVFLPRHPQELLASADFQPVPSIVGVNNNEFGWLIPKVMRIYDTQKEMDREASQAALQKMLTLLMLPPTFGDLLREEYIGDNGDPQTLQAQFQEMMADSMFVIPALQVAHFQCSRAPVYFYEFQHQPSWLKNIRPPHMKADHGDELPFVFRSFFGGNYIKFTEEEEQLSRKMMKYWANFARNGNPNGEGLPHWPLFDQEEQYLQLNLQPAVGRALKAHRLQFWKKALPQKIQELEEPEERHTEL

Cocaine esterase [2] = biological target: T1, Cocaine esterase; test: Drug metabolism assessed as loperamide-mediated inhibition of CES2-mediated compound hydrolysis in human liver cytosol at 5 uM relative to control; assay type: ADME, tissue-based; parameters: scale not given: the % may be the effect or the level left
Liver carboxylesterase 1 = biological target: T2, Liver carboxylesterase 1 (Homo sapiens, UniProt P23141); test: Drug metabolism assessed as human recombinant CES1-mediated compound hydrolysis at 5 uM; assay type: ADME; conditions: recombinant enzyme
T2 sequence (P23141 whole entry): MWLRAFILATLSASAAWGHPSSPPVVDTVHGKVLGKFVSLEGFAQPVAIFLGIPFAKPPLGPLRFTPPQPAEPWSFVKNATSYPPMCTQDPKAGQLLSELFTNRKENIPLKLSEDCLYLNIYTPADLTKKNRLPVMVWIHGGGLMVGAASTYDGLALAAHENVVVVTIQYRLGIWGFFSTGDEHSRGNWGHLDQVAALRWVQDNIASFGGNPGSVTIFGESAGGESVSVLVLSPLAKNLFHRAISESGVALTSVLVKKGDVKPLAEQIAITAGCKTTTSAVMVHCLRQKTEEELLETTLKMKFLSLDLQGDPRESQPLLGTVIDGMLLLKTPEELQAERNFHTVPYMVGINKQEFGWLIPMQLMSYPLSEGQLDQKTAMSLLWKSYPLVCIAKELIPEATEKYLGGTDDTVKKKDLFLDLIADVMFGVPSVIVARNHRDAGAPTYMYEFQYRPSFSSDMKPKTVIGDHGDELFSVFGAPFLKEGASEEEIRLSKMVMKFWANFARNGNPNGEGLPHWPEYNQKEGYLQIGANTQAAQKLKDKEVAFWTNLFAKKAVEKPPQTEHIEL

Cocaine esterase [3] = biological target: T1, Cocaine esterase; test: Inhibition of human recombinant CES2 assessed as compound hydrolysis
Cocaine esterase [4] = biological target: T1, Cocaine esterase; test: Intrinsic clearance assessed as ratio of Vmax to Km for human recombinant CES2; assay type: ADME; conditions: recombinant enzyme
CES2 (cocaine esterase) [5] = biological target: T3, CES2 (cocaine esterase) (Homo sapiens, UniProt O00748); test: Drug metabolism assessed as loperamide-mediated inhibition of human recombinant CES2-mediated compound hydrolysis measured as enzyme activity at 5 uM relative to control; assay type: ADME; parameters: scale not given: the % may be the effect or the level left; conditions: recombinant CES2, with loperamide (concentration not clearly stated), read-out: Activity
T3 sequence (O00748 whole entry): T1 sequence (O00748 whole entry)

[6] = biological target: T4, AADAC (arylacetamide deacetylase) (Homo sapiens, UniProt P22760); test: Drug metabolism assessed as loperamide-mediated inhibition of human recombinant AADAC-mediated compound hydrolysis expressed in SF21 cells measured as enzyme activity at 5 uM relative to control; assay type: ADME; parameters: scale not given: the % may be the effect or the level left; conditions: with loperamide (concentration not clearly stated), read-out: Activity
T4 sequence (P22760 whole entry): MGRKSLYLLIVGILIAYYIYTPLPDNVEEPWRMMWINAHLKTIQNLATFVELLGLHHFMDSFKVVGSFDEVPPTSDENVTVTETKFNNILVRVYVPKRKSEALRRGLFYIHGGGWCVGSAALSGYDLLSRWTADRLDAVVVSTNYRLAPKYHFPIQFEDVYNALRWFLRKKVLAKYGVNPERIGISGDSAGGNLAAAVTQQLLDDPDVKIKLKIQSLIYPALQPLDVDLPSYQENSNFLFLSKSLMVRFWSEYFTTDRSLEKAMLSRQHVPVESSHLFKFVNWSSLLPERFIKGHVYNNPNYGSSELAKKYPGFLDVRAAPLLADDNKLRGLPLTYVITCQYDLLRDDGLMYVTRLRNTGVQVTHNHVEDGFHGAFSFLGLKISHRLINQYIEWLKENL

Cocaine esterase [7] = biological target: T1, Cocaine esterase; test: Drug metabolism assessed as loperamide-mediated inhibition of CES2-mediated compound hydrolysis in human liver microsomes at 5 uM relative to control; assay type: ADME; parameters: scale not given: the % may be the effect or the level left
[8] = biological target: T5, Arylacetamide deacetylase (Homo sapiens, UniProt P22760); test: Drug metabolism assessed as human recombinant AADAC-mediated compound hydrolysis expressed in SF21 cells at 50 uM; assay type: ADME; conditions: sf21, 50 µM
T5 sequence (P22760 whole entry): T4 sequence (P22760 whole entry)

Cocaine esterase [9] = biological target: T1, Cocaine esterase; test: Drug metabolism assessed as human recombinant CES2-mediated compound hydrolysis at 5 uM; assay type: ADME; conditions: recombinant enzyme
Cocaine esterase [10] = biological target: T1, Cocaine esterase; test: Drug metabolism assessed as human recombinant CES2-mediated compound hydrolysis at 50 uM; assay type: ADME; conditions: recombinant enzyme
Cocaine esterase [11] = biological target: T1, Cocaine esterase; test: Drug metabolism assessed as human recombinant CES2-mediated compound hydrolysis at 200 uM; assay type: ADME; conditions: recombinant enzyme
[12] = biological target: T5, Arylacetamide deacetylase; test: Drug metabolism assessed as human recombinant AADAC-mediated compound hydrolysis at 5 uM; assay type: ADME
[13] = biological target: T5, Arylacetamide deacetylase; test: Drug metabolism assessed as human recombinant AADAC-mediated compound hydrolysis at 200 uM; assay type: ADME
[14] = biological target: T4, AADAC (arylacetamide deacetylase); test: Drug metabolism assessed as AADAC-mediated compound hydrolysis in human liver homogenates at 5 to 200 uM; assay type: ADME, tissue-based; conditions: read-out: Drug metabolism
Cocaine esterase [15] = biological target: T1, Cocaine esterase; test: Drug metabolism assessed as CES2-mediated compound hydrolysis in human liver homogenates at 5 to 200 uM; assay type: ADME, tissue-based; conditions: tissue homogenate
[16] = biological target: T4, AADAC (arylacetamide deacetylase); test: Drug metabolism assessed as AADAC-mediated compound hydrolysis in human liver homogenates at 5 uM; assay type: ADME, tissue-based; conditions: read-out: Drug metabolism
[17] = biological target: T4, AADAC (arylacetamide deacetylase); test: Drug metabolism assessed as AADAC-mediated compound hydrolysis in human liver homogenates at 50 uM; assay type: ADME, tissue-based; conditions: read-out: Drug metabolism
[18] = biological target: T4, AADAC (arylacetamide deacetylase); test: Drug metabolism assessed as AADAC-mediated compound hydrolysis in human liver homogenates at 200 uM; assay type: ADME, tissue-based; conditions: read-out: Drug metabolism
CES2 (cocaine esterase) [19] = biological target: T3, CES2 (cocaine esterase); test: Drug metabolism assessed as CES2-mediated compound hydrolysis in human liver homogenates at 5 uM; assay type: ADME, tissue-based; conditions: read-out: Drug metabolism
CES2 (cocaine esterase) [20] = biological target: T3, CES2 (cocaine esterase); test: Drug metabolism assessed as CES2-mediated compound hydrolysis in human liver homogenates at 50 uM; assay type: ADME, tissue-based; conditions: read-out: Drug metabolism
CES2 (cocaine esterase) [21] = biological target: T3, CES2 (cocaine esterase); test: Drug metabolism assessed as CES2-mediated compound hydrolysis in human liver homogenates at 200 uM; assay type: ADME, tissue-based; conditions: read-out: Drug metabolism
Cocaine esterase [22] = biological target: T1, Cocaine esterase; test: Drug metabolism assessed as human recombinant CES2-mediated compound hydrolysis at 2 uM; assay type: ADME; conditions: recombinant enzyme

CC(C)C(=O)Nc1ccc([N+](=O)[O-])c(C(F)(F)F)c1 [FLUTAMIDE]
Activity (Cocaine esterase [1]): 18.6% | Activity (Cocaine esterase [2]): 15.7% | Drug metabolism (Liver carboxylesterase 1): metabolite_not_detected | pKi (Cocaine esterase [3]): 5.64 | Ratio (Cocaine esterase [4]): 4.2 µL/min/mg | activity at 5 µM (CES2 (cocaine esterase) [5]): 7.7% | activity at 5 µM [6]: 74.7% | Activity (Cocaine esterase [7]): 22.9% | Drug metabolism [8]: 87.6 pmol/min/mg | Drug metabolism (Cocaine esterase [9]): 16 pmol/min/mg | Drug metabolism (Cocaine esterase [10]): 38.9 pmol/min/mg | Drug metabolism (Cocaine esterase [11]): 13.5 pmol/min/mg | Drug metabolism [12]: 3.1 pmol/min/mg | Drug metabolism [13]: 389 pmol/min/mg | metabolised at up to 200 µM [14]: 79.6% | Drug metabolism (Cocaine esterase [15]): 170.4% | metabolised at 5 µM [16]: 11.7% | metabolised at 50 µM [17]: 53% | metabolised at 200 µM [18]: 89.4% | metabolised at 5 µM (CES2 (cocaine esterase) [19]): 88.3% | metabolised at 50 µM (CES2 (cocaine esterase) [20]): 47% | metabolised at 200 µM (CES2 (cocaine esterase) [21]): 10.6%

CO[C@H]1/C=C/O[C@@]2(C)Oc3c(C)c(O)c4c(O)c(c(/C=N/N5CCN(C)CC5)c(O)c4c3C2=O)NC(=O)/C(C)=C\C=C\[C@H](C)[C@H](O)[C@@H](C)[C@@H](O)[C@@H](C)[C@H](OC(C)=O)[C@@H]1C [RIFAMPIN]
Drug metabolism [8]: 41.77 pmol/min/mg | Drug metabolism (Cocaine esterase [22]): 2.99 pmol/min/mg
